According to ChEMBL document CHEMBL4041507, “Design, synthesis and biological evaluation of [1,2,4]triazolo[1,5-a]pyrimidines as potent lysine specific demethylase 1 (LSD1/KDM1A) inhibitors” (Eur J Med Chem, 2017):
Activity calls are given as the source filed them. The rule behind the calls is not given here.

What was measured:
PC-9 [1] = assay: cells; conditions: Homo sapiens
Description: Cytotoxicity against human PC9 cells assessed as growth inhibition by MTT assay

MGC-803 [2] = assay: cells; conditions: Homo sapiens, MGC-803, read-out: GI
Description: Cytotoxicity against human MGC803 cells assessed as growth inhibition at 10 uM by MTT assay relative to control

ECa-109 cell line [3] = assay: cells; conditions: Homo sapiens, ECa-109, read-out: GI
Description: Cytotoxicity against human EC109 cells assessed as growth inhibition at 10 uM by MTT assay relative to control

[4] = target: Lysine-specific histone demethylase 1A (Homo sapiens, UniProt O60341)
Description: Inhibition of recombinant human LSD1 (157 to 852 residues) expressed in Escherichia coli BL21(DE3) using H3K4me2 as substrate preincubated for 1 hr followed by substrate addition by fluorescence assay

A549 [5] = assay: cells; conditions: Homo sapiens, A549, read-out: GI
Description: Cytotoxicity against human A549 cells assessed as growth inhibition at 10 uM by MTT assay relative to control

A549 [6] = assay: cells; conditions: Homo sapiens
Description: Cytotoxicity against human A549 cells assessed as growth inhibition by MTT assay

PC-9 [7] = assay: cells; conditions: Homo sapiens, PC-9, read-out: GI
Description: Cytotoxicity against human PC9 cells assessed as growth inhibition at 10 uM by MTT assay relative to control

ECa-109 cell line [8] = assay: cells; conditions: Homo sapiens
Description: Cytotoxicity against human EC109 cells assessed as growth inhibition by MTT assay

MGC-803 [9] = assay: cells; conditions: Homo sapiens
Description: Cytotoxicity against human MGC803 cells assessed as growth inhibition by MTT assay

PC-9 [10] = assay: Potency index, ratio of 5-fluorouracil IC50 to compound IC50 for human PC9 cells; assay type: functional
PC-9 [11] = assay: Anti-migratory activity against human PC9 cells after 24 hrs by Hoechst 33258 staining based transwell assay; assay type: functional, cell-based
MGC-803 [12] = assay: Anti-migratory activity against human MGC803 cells after 24 hrs by Hoechst 33258 staining based transwell assay; assay type: functional, cell-based
PC-9 [13] = assay: Decrease in N-cadherin expression in human PC9 cells at 5 to 10 uM after 24 hrs by Western blot method; assay type: functional, cell-based
PC-9 [14] = assay: Increase in E-cadherin expression in human PC9 cells at 5 to 10 uM after 24 hrs by Western blot method; assay type: functional, cell-based
MGC-803 [15] = assay: Effect on N-cadherin expression in human MGC803 cells at 5 to 10 uM after 24 hrs by Western blot method; assay type: functional, cell-based
MGC-803 [16] = assay: Anti-migratory activity against human MGC803 cells at 10 uM after 24 hrs by Hoechst 33258 staining based transwell assay relative to control; assay type: functional; conditions: MGC-803, 24 h
MGC-803 [17] = assay: Effect on E-cadherin expression in human MGC803 cells at 5 to 10 uM after 24 hrs by Western blot method; assay type: functional, cell-based

SMILES	IC50 (PC-9 [1])	inhibition of growth at 10 µM (MGC-803 [2])	inhibition of growth at 10 µM (ECa-109 cell line [3])	IC50 [4]	inhibition of growth at 10 µM (A549 [5])	IC50 (A549 [6])	inhibition of growth at 10 µM (PC-9 [7])	IC50 (ECa-109 cell line [8])	IC50 (MGC-803 [9])	Ratio IC50 (PC-9 [10])	Activity (PC-9 [11])	Activity (MGC-803 [12])	Activity (PC-9 [13])	Activity (PC-9 [14])	Activity (MGC-803 [15])	inhibition at 10 µM (MGC-803 [16])	Activity (MGC-803 [17])
Cc1cc(NCCCN2CCOCC2)n2nc(SCc3ccccc3)nc2n1	15 µM	24.9%	9.3%	> 10 µM	49.2%	17 µM	51.9%	–	–	–	–	–	–	–	–	–	–
Cc1cc(N2CCC(N3CCCCC3)CC2)n2nc(SCc3ccccc3)nc2n1	–	32.8%	0.3%	> 10 µM	56.5%	8.87 µM	35.6%	–	–	–	–	–	–	–	–	–	–
Cc1cc(NNC(=O)c2cnccn2)n2nc(SCc3nc4ccccc4[nH]3)nc2n1	12.3 µM	8.6%	35.5%	0.557 µM	65.2%	10.3 µM	52.5%	–	–	–	–	–	–	–	–	–	–
O=C(O)c1ccc(CN2CCC(CN[C@@H]3C[C@H]3c3ccccc3)CC2)cc1 [GSK2879552]	–	–	–	0.024 µM	–	–	–	> 50 µM	> 50 µM	–	–	–	–	–	–	–	–
Cc1cc(N2CCN(CCO)CC2)n2nc(SCc3ccccc3)nc2n1	–	23.8%	5.9%	> 10 µM	42.1%	–	14.9%	–	–	–	–	–	–	–	–	–	–
COc1cc(Nc2cc(C)nc3nc(SCc4nc5ccccc5[nH]4)nn23)cc(OC)c1OC	–	28%	34.1%	> 10 µM	52.4%	18 µM	42.9%	–	–	–	–	–	–	–	–	–	–
Cc1cc(OCCN2CCCC2)n2nc(SCc3ccccc3)nc2n1	–	28.8%	11.4%	> 10 µM	49.8%	22.8 µM	43.6%	–	–	–	–	–	–	–	–	–	–
Cc1cc(Nc2ccc(Br)cc2)n2nc(SCc3nc4ccccc4[nH]3)nc2n1	–	36.7%	43.8%	> 10 µM	35.2%	–	36.4%	–	–	–	–	–	–	–	–	–	–
Cc1cc(NCCCn2ccnc2)n2nc(SCc3ccccc3)nc2n1	12.3 µM	26.2%	12.8%	> 10 µM	50.2%	16.1 µM	47.7%	–	–	–	–	–	–	–	–	–	–
Cc1cc(Nc2ccc(C(=O)O)cc2)n2nc(SCc3ccccc3)nc2n1	–	26.7%	14.3%	> 10 µM	34.6%	–	30.7%	–	–	–	–	–	–	–	–	–	–
Cc1cc(Nc2ccc(F)cc2)n2nc(SCc3nc4ccccc4[nH]3)nc2n1	–	19.2%	39.7%	> 10 µM	36.6%	–	27.6%	–	–	–	–	–	–	–	–	–	–
Cc1cc(Nc2ccccc2)n2nc(SCc3nc4ccccc4[nH]3)nc2n1	–	17.9%	39.9%	> 10 µM	38%	–	31.6%	–	–	–	–	–	–	–	–	–	–
Cc1cc(Nc2cccc3c2CN(C2CCC(=O)NC2=O)C3=O)n2nc(SCc3nc4ccccc4[nH]3)nc2n1 (stereo not drawn)	15 µM	11.4%	32.2%	> 10 µM	48.2%	19.8 µM	52.4%	–	–	–	–	–	–	–	–	–	–
COc1cc(Nc2cc(C)nc3nc(SCc4ccccc4)nn23)cc(OC)c1OC	–	32.8%	41.6%	> 10 µM	37.9%	–	13.5%	–	–	–	–	–	–	–	–	–	–
Cc1cc(N2CCOCC2)n2nc(SCc3ccccc3)nc2n1	–	31%	10.6%	> 10 µM	45.4%	–	27.3%	–	–	–	–	–	–	–	–	–	–
Cc1cc(N2CCNCC2)n2nc(SCc3ccccc3)nc2n1	–	32.4%	23.9%	> 10 µM	41.4%	–	29.3%	–	–	–	–	–	–	–	–	–	–

SMILES	IC50 (PC-9 [1])	inhibition of growth at 10 µM (MGC-803 [2])	inhibition of growth at 10 µM (ECa-109 cell line [3])	IC50 [4]	inhibition of growth at 10 µM (A549 [5])	IC50 (A549 [6])	inhibition of growth at 10 µM (PC-9 [7])	IC50 (ECa-109 cell line [8])	IC50 (MGC-803 [9])	Ratio IC50 (PC-9 [10])	Activity (PC-9 [11])	Activity (MGC-803 [12])	Activity (PC-9 [13])	Activity (PC-9 [14])	Activity (MGC-803 [15])	inhibition at 10 µM (MGC-803 [16])	Activity (MGC-803 [17])
COc1cc(/C=C/C(=O)c2ccc(Nc3cc(C)nc4nc(SCc5nc6ccccc6[nH]5)nn34)cc2)cc(OC)c1OC	0.57 µM	81.3%	76.4%	> 10 µM	71.6%	8.79 µM	93.1%	3.23 µM	2.46 µM	4	–	–	–	–	–	–	–
Cc1cc(Nc2ccc(F)cc2)n2nc(SCc3ccccc3)nc2n1	–	19.7%	37.6%	> 10 µM	41.8%	–	43.5%	–	–	–	–	–	–	–	–	–	–
Cc1cc(N)n2nc(SCc3ccccc3)nc2n1	8.14 µM	32.3%	4.7%	> 10 µM	57.3%	9.74 µM	48.3%	–	–	–	–	–	–	–	–	–	–
Cc1cc(NCCc2c[nH]c3ccccc23)n2nc(SCc3ccccc3)nc2n1	–	34.2%	7%	> 10 µM	43.9%	–	24%	–	–	–	–	–	–	–	–	–	–
Cc1cc(Nc2ccc(C(=O)/C=C/c3cccs3)cc2)n2nc(SCc3nc4ccccc4[nH]3)nc2n1	11 µM	29.6%	38.3%	> 10 µM	51.1%	9.9 µM	40.4%	10.6 µM	7.88 µM	–	–	–	–	–	–	–	–
CCC1(c2ccc(Nc3cc(C)nc4nc(SCc5nc6ccccc6[nH]5)nn34)cc2)CCC(=O)NC1=O (stereo not drawn)	12.2 µM	1.1%	38.2%	> 10 µM	49.2%	17.5 µM	47.9%	–	–	–	–	–	–	–	–	–	–
Cc1cc(NNC(=O)c2cnccn2)n2nc(SCc3ccccc3)nc2n1	12.7 µM	35.3%	23.3%	1.19 µM	40.9%	–	63.2%	–	–	–	–	–	–	–	–	–	–
Cc1cc(Nc2ccccc2)n2nc(SCc3ccccc3)nc2n1	–	35%	12.9%	> 10 µM	50.2%	16.4 µM	40.2%	–	–	–	–	–	–	–	–	–	–
Cc1ccc(Nc2cc(C)nc3nc(SCc4ccccc4)nn23)cc1	–	26%	44.7%	> 10 µM	33.7%	–	30.2%	–	–	–	–	–	–	–	–	–	–
Cc1cc(Nc2ccc(Cl)cc2)n2nc(SCc3nc4ccccc4[nH]3)nc2n1	–	16.8%	41.2%	> 10 µM	34.9%	–	33.2%	–	–	–	–	–	–	–	–	–	–
Cc1cc(Nc2ccc(C(=O)O)cc2)n2nc(SCc3nc4ccccc4[nH]3)nc2n1	–	0.4%	4.5%	> 10 µM	5.6%	–	11.9%	–	–	–	–	–	–	–	–	–	–
Cc1cc(NCCCO)n2nc(SCc3ccccc3)nc2n1	10.7 µM	33.3%	6.3%	> 10 µM	53.7%	8.85 µM	51.4%	–	–	–	–	–	–	–	–	–	–
Cc1ccc(Nc2cc(C)nc3nc(SCc4nc5ccccc5[nH]4)nn23)cc1	–	22.9%	43.1%	> 10 µM	35.1%	–	36.9%	–	–	–	–	–	–	–	–	–	–
Cc1cc(Nc2ccc(C#N)cc2)n2nc(SCc3nc4ccccc4[nH]3)nc2n1	–	19.3%	26.3%	> 10 µM	52.3%	13.9 µM	41.9%	–	–	–	–	–	–	–	–	–	–
O=c1[nH]cc(F)c(=O)[nH]1 [FLUOROURACIL]	1.99 µM	–	–	–	–	14 µM	–	26 µM	10.1 µM	–	–	–	–	–	–	–	–
Cc1cc(NNC(N)=S)n2nc(SCc3ccccc3)nc2n1	–	2.1%	14.2%	0.154 µM	25.6%	–	30.7%	–	–	–	Dose-dependent effect	Dose-dependent effect	Active	Active	inactive	21%	inactive
